The results in this text go back to paper PMC2535826, “Cross-Species Differential Plasma Protein Binding of MBX-102/JNJ39659100: A Novel PPAR-γ Agonist” (PPAR Research, 2008).

SMILES strings stand for the structures. Where “and” joins values, the source holds several entries; their conditions need not be identical. Equal values may be shown once. Read-outs that look alike come from different tables or passages of the source.

Data set [1] in a line: Plasma protein binding by equilibrium dialysis, rat plasma. Format: in vitro ADME, Sprague Dawley rats. Conditions: Sprague Dawley, equilibrium dialysis vs PBS, 37°C, read-out: %Protein Binding ± SD (converted). How it is done: (§1) Radiolabeled MBX-102 acid was prepared as a 1 mL ethanol solution at a concentration of 50 μM (1 mCi total). […] Final solvent concentrations were 1% of the total volume. Plasma was stored at −20°C. Prior to use, it was thawed and spun at approximately 2000 rpm for 5 minutes to remove any precipitated material. The pH was adjusted to pH 7.4 by careful addition of NaH2PO4. A 1 mL sample of spiked plasma was prepared by direct dilution of [^3H]-MBX-102 acid stock solution into plasma and then added to one side of an equilibrium dialysis chamber. The other chamber was filled with 1 mL of 0.01 M phosphate buffered saline (PBS). The dialysis apparatus was placed in a water bath at 37°C and rotated at 20 rpm. […] Once equilibrium was established, the contents of the cell chambers were removed and analyzed by liquid scintillation counting. The chambers were sampled in triplicate. […] The recovery percentage was found not to vary with MBX-102 acid concentration.
In general terms: In equilibrium dialysis only unbound substance equilibrates across the membrane.

Data set [2] deals with T1, human PPAR-γ ligand-binding domain (Homo sapiens, UniProt P37231).
T1 construct: GST-PPARγ-LBD (5 nM), Tb-labeled anti-GST antibody (5 nM); purchased Invitrogen
T1 sequence (P37231 238-503 limits assumed): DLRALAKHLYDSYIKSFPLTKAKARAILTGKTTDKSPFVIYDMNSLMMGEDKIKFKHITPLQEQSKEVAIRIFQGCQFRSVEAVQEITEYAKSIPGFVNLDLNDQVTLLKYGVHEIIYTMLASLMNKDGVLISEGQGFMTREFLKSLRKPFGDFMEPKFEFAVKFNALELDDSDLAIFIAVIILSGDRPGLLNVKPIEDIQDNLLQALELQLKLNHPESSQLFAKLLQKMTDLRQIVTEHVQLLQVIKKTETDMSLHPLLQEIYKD
The data set is described as follows: Lanthascreen TR-FRET NCOR corepressor displacement assay. Format: biochemical. To be noted: for IC50: 3 experiments, mean ± SD, read-out: IC50 displacement of NCOR corepressor peptide. How it is done:
Assays were performed according to the manufacturer’s instructions. […] Life Science, Lowell, Mass, USA). […] The plate was covered and incubated for 4 hours at room temperature. The time resolved fluorescence resonance energy transfer (TR-FRET) signal was measured using a Pherastar fluorescence counter (BMG labtech, Offenburg, Germany). The ratio of the emission intensity of the acceptor (Fluorescein: λ = 520 nm) divided by the emission intensity of the donor (Tb: λ = 490 nm) was then calculated to determine the degree of NCOR binding. Each measurement was performed in quadruplicate.
Background: Time-resolved FRET reads energy transfer from a long-lived donor to a nearby acceptor.

Data set [3] can be described thus: Plasma protein binding by equilibrium dialysis, mouse plasma. Format: in vitro ADME, CD-1 mice. Conditions: equilibrium dialysis vs PBS, 37°C, read-out: %Protein Binding ± SD (converted). How it is done:
as §1

Data set [4] is described as follows: Plasma protein binding by equilibrium dialysis, human plasma. Format: in vitro ADME. To be noted: equilibrium dialysis vs PBS, 37°C, read-out: %Protein Binding ± SD (converted). Here is the method:
as §1

For orientation: IC50 means the concentration that inhibits the measured activity by half. As to `O=C(O)[C@H](Oc1cccc(C(F)(F)F)c1)c1ccc(Cl)cc1` (stereo in doubt) [MBX-102 acid], the fraction unbound at 400 µM in data set [1] (pH 7.4, MBX-102 acid 400 μM) is 0.002; in data set [3] (CD-1, pH 7.4, MBX-102 acid 400 μM) it was 0.002; in data set [4] (pH 7.4, MBX-102 acid 400 μM), 0.002. Further, the fraction unbound at 600 µM is 0.002 in data set [1] (pH 7.4, MBX-102 acid 600 μM); 0.003 in data set [3] (CD-1, pH 7.4, MBX-102 acid 600 μM); 0.002 in data set [4] (pH 7.4, MBX-102 acid 600 μM). In addition, the fraction unbound at 1000 µM was 0.003 in data set [1] (pH 7.4, MBX-102 acid 1000 μM); 0.005 in data set [3] (CD-1, pH 7.4, MBX-102 acid 1000 μM); 0.003 in data set [4] (pH 7.4, MBX-102 acid 1000 μM). Besides, the fraction unbound at 1500 µM is 0.002 in data set [1] (pH 7.4, MBX-102 acid 1500 μM) and 0.002 in data set [3] (CD-1, pH 7.4, MBX-102 acid 1500 μM). In addition, the fraction unbound at 2000 µM in data set [1] (pH 7.4, MBX-102 acid 2000 μM) was 0.005; in data set [3] (CD-1, pH 7.4, MBX-102 acid 2000 μM), 0.005; in data set [4] (pH 7.4, MBX-102 acid 2000 μM), 0.002. In addition, the IC50 in data set [2] (0% serum) was 11 µM and 10.6 µM; in data set [2] (10% (v/v) human serum), 98.5 ± 6.6 µM; in data set [2] (40% (v/v) human serum), 200 ± 6.4 µM; in data set [2] (40% (v/v) mouse serum), 28.1 ± 2.6 µM; in data set [2] (40% (v/v) rat serum), 57.9 ± 14.2 µM. Moreover, the “fold shift in the IC50” value in data set [2] (40% human serum versus no serum) is at most 19 fold. Further, the “FC, IC50 fold change human-to-mouse serum” value in data set [2] (40% serum) is 7 and 7.17. Besides, the “FC, IC50 fold change human-to-rat serum” value in data set [2] (40% serum) is 4 and 3.59.
